# Measurements published in patent US20230330080A1, “THERAPEUTIC TREATMENT USING PROTEIN KINASE C (PKC) INHIBITORS AND CYTOTOXIC AGENTS” (Cambridge Enterprise Limited, priority 2020, published 2023).
# Assays:
# Format in all cases: cell-based, human
# [1] = system: CLL patient cells co-cultured with wild-type bone marrow derived stroma cells; test: 1-hour PKC inhibitor pre-treatment with washout before cytotoxic agent; viability of CLL/stroma co-cultures by Annexin-V-FITC and DAPI flow cytometry
# Description: (§1) Approximately 20,000 wild-type bone marrow derived stroma cells were seeded into tissue culture wells and subsequently co-cultured with approximately 200,000 CLL patient cells. 24 hours thereafter, co-cultures were treated with 5 μM Enzastaurin for 1 hour at the indicated time-points prior to treatment with Fludarabine or Venetoclax (FIGS. 1A and 2A). Equivalent PKC-β-inhibitor exposure was maintained through removal and subsequent washout of Enzastaurin-treated co-cultures. Co-cultures were centrifuged at 500 g for 5 minutes, prior to removal of Enzastaurin containing media. Washout with cell culture media, was followed by an additional centrifugation at 500 g for 5 minutes, and the replacement of washout media with fresh media. Respective co-cultures were subsequently treated with either Fludarabine (2.5 μM) or Venetoclax (2.5 nM) for 24 hours. Cells were subsequently evaluated for viability using Annexin-V-FITC and DAPI, or 4′,6-diamidino-2-phenylindole, staining on a flow cytometer (FIGS. 1B and 2B).
# as §1, with “Bendamustine (FIG. 7).” for “Fludarabine or Venetoclax (FIGS. 1A and 2A).”, “Bendamustine (15” for “either Fludarabine (2.5”, “μM)” for “μM) or Venetoclax (2.5 nM)”, “cytometer.” for “cytometer (FIGS. 1B and 2B).”
# Approximately 20,000 wild-type bone marrow derived stroma cells were seeded into tissue culture wells and subsequently co-cultured with approximately 200,000 CLL patient cells. 24 hours thereafter, co-cultures were treated with 5 μM Ruboxistaurin for 1 hour at the indicated time-points prior to treatment with Venetoclax (FIG. 10A). Equivalent PKC-β-inhibitor exposure was maintained through removal and subsequent washout of Ruboxistaurin-treated co-cultures. Co-cultures were centrifuged at 500 g for 5 minutes, prior to removal of Ruboxistaurin containing media. Washout with cell culture media, was followed by an additional centrifugation at 500 g for 5 minutes, and the replacement of washout media with fresh media. Respective co-cultures were subsequently treated with Venetoclax (5 nM) for 24 hours. Cells were subsequently evaluated for viability using Annexin-V-FITC and DAPI, or 4′,6-diamidino-2-phenylindole, staining on a flow cytometer (FIG. 10B).
# [2] = system: CLL patient cells co-cultured with wild-type bone marrow derived stroma cells; test: Synergism of PKC-β inhibitors with Venetoclax in CLL/stroma co-culture (Compusyn, Bliss Independence model); details: PKC inhibitor 1.25, 2.5, 5 μM prior to Venetoclax 5, 10, 20 nM for 24 hours
# Description: Heatmaps reflect assessment values noted for respective compound combinations, with error (*) indicated below. A scale of 50 to −50, is applied to values, with 50 representing maximal synergism and −50 being maximal antagonism. Non-significant values are by default coloured as neither synergistic nor antagonistic;
# Approximately 20,000 wild-type bone marrow derived stroma cells were seeded into tissue culture wells and subsequently co-cultured with approximately 200,000 CLL patient cells. 24 hours thereafter, co-cultures were treated with Enzastaurin, Sotrastaurin or Midostaurin (1.25 μM, 2.5 μM, 5 μM) prior to treatment with Venetoclax. Co-cultures were subsequently treated with Venetoclax (5 nM, 10 nM, 20 nM) for 24 hours. Cells were subsequently evaluated for viability using flow cytometric analysis. Synergism was calculated using Compusyn Software (CRUK), within the Bliss Independence model (FIG. 5).
# [3] = system: CLL patient cells co-cultured with wild-type bone marrow derived stroma cells; test: Continuous PKC inhibitor exposure begun before cytotoxic agent; viability of CLL/stroma co-cultures by Annexin-V-FITC and DAPI flow cytometry
# Description: (§2) Approximately 20,000 wild-type bone marrow derived stroma cells were seeded into tissue culture wells and subsequently co-cultured with approximately 200,000 CLL patient cells. 24 hours thereafter, co-cultures were treated with 5 μM Enzastaurin at the indicated time-points prior to treatment with Venetoclax (FIG. 3A). Co-cultures were subsequently treated with Venetoclax (2.5 nM) for 24 hours. Cells were subsequently evaluated for viability using Annexin-V-FITC and DAPI staining on a flow cytometer (FIG. 3B).
# as §2, with “Bendamustine” for “Venetoclax”, “8).” for “3A).”, “Bendamustine (15 μM)” for “Venetoclax (2.5 nM)”, “8).” for “3B).”
# as §2, with “1” for “5”, “Midostaurin” for “Enzastaurin”, “Bendamustine” for “Venetoclax”, “8).” for “3A).”, “Bendamustine (15 μM)” for “Venetoclax (2.5 nM)”, “9).” for “3B).”
# [4] = 5 μM Ruboxistaurin for 1 hour, then Venetoclax 5 nM for 24 hours
# [5] = 5 μM Enzastaurin for 1 hour, then Bendamustine 15 μM for 24 hours
# [6] = 5 μM Enzastaurin for 1 hour, then Fludarabine 2.5 μM for 24 hours
# [7] = 5 μM Enzastaurin for 1 hour, then Venetoclax 2.5 nM for 24 hours
smiles,measurement,setting,value
CN(C)C[C@@H]1CCn2cc(c3ccccc32)C2=C(C(=O)NC2=O)c2cn(c3ccccc23)CCO1 [Ruboxistaurin],pre-dosing time points showing increased efficacy of Venetoclax,[1]; [4],1 to 6 h
same,pre-dosing time points with most significant effects on efficacy of Venetoclax,[1]; [4],1 to 4 h
"CN1CCN(c2nc(C3=C(c4c[nH]c5ccccc45)C(O)=NC3=O)c3ccccc3n2)CC1 [Sotrastaurin, 5-hydroxy-4-(1H-indol-3-yl)-3-[2-(4-methylpiperazin-1-yl)quinazolin-4-yl]-2H-pyrrol-2-one]","combinatorial treatment effect with Venetoclax (synergism, Bliss model)",[2],synergistic effects
"Cn1cc(C2=C(c3cn(C4CCN(Cc5ccccn5)CC4)c4ccccc34)C(=O)NC2=O)c2ccccc21 [Enzastaurin, 3-(1-methylindol-3-yl)-4-[1-[1-(pyridin-2-ylmethyl)piperidin-4-yl]indol-3-yl]pyrrole-2,5-dione]",pre-dosing timepoints showing increased efficacy of Bendamustine,[1]; [5],2 to 6 h
same,pre-dosing timepoints with largest effect on efficacy of Bendamustine,[1]; [5],3 to 6 h
same,pre-dosing time points showing increased efficacy of Fludarabine,[1]; [6],2 to 6 h
same,pre-dosing time points with largest effect on efficacy of Fludarabine,[1]; [6],3 to 6 h
same,pre-dosing time points showing increased efficacy of Venetoclax,[1]; [7],2 to 6 h
same,pre-dosing time points with largest effect on efficacy of Venetoclax,[1]; [7],3 to 6 h
same,pre-dosing time giving greatest efficacy of Bendamustine,"[3]; continuous 5 μM Enzastaurin beginning 1, 2, 3, 4, 6, 8 hours prior to Bendamustine 15 μM for 24 hours",3 to 6 h
same,pre-dosing time giving greatest efficacy of Venetoclax,"[3]; continuous 5 μM Enzastaurin beginning 1, 2, 3, 4, 6, 12 hours prior to Venetoclax 2.5 nM for 24 hours",3 to 6 h
same,"combinatorial treatment effect with Venetoclax (synergism, Bliss model)",[2],synergistic effects
"CO[C@@H]1[C@H](N(C)C(=O)c2ccccc2)C[C@H]2O[C@]1(C)n1c3ccccc3c3c4c(c5c6ccccc6n2c5c31)C(=O)NC4 [Midostaurin, N-((5R,7R,8R,9S)-8-methoxy-9-methyl-16-oxo-6,7,8,9,15,16-hexahydro-5H,14H-17-oxa-4b,9a,15-triaza-5,9-methanodibenzo[b,h]cyclonona[jkl]cyclopenta[e]-as-indacen-7-yl)-N-methylbenzamide]",pre-dosing time giving greatest efficacy of Bendamustine,"[3]; continuous 1 μM Midostaurin beginning 1, 2, 3, 4, 6, 8 hours prior to Bendamustine 15 μM for 24 hours",3 to 8 h
